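Test compounds were applied to cells in 96-well plates for 48 hours at 5 doses. GI50: concentration for 50% inhibition of growth.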 The source made the active and inactive calls. Cut-off read from the data, not from the text of the source: active = GI50 up to about 1.1 µM and inactive = higher. Peptide text beside a SMILES is read from it. * marks the point of attachment. OSu = O=C1CCC(=O)N1O*
Tests used:
Assay in all cases: inhibition of tumour cell growth, NCI panel, 48 h
ACHN = tested on: ACHN
SK-MEL-2 = tested on: SK-MEL-2
NCI-H522 = tested on: NCI-H522
OVCAR-5 = tested on: OVCAR-5
UACC-257 = tested on: UACC-257
KM12 = tested on: KM12
BT-549 = tested on: BT-549
OVCAR-3 = tested on: OVCAR-3
SNB-75 = tested on: SNB-75
U-251 = tested on: U-251
UO-31 = tested on: UO-31
M14 = tested on: M14
SK-OV-3 = tested on: SK-OV-3
DU-145 = tested on: DU-145
OVCAR-4 = tested on: OVCAR-4
HOP-62 = tested on: HOP-62
LOX IMVI = tested on: LOX IMVI
NCI/ADR-RES = tested on: NCI/ADR-RES
HCT-15 = tested on: HCT-15

Structure (SMILES)	GI50 (ACHN)	GI50 (SK-MEL-2)	GI50 (NCI-H522)	GI50 (OVCAR-5)	GI50 (UACC-257)	GI50 (KM12)	GI50 (BT-549)	GI50 (OVCAR-3)	GI50 (SNB-75)	GI50 (U-251)	GI50 (UO-31)	GI50 (M14)	GI50 (SK-OV-3)	GI50 (DU-145)	GI50 (OVCAR-4)	GI50 (HOP-62)	GI50 (LOX IMVI)	GI50 (NCI/ADR-RES)	GI50 (HCT-15) [µM]
C/C(=N/NC(=S)NCCc1ccccn1)c1cnccn1	20.7 µM (inactive)	> 100 µM (inactive)	3.6 µM (inactive)	79.3 µM (inactive)	35.6 µM (inactive)	36.9 µM (inactive)	32.5 µM (inactive)	32.1 µM (inactive)	> 100 µM (inactive)	20.2 µM (inactive)	16.6 µM (inactive)	24 µM (inactive)	20.1 µM (inactive)	17.8 µM (inactive)	24.4 µM (inactive)	31.2 µM (inactive)	9.66 µM (inactive)		
CCOC(=O)CC(N1CC1)N1CC1	> 10 µM (inactive)	> 10 µM (inactive)	> 10 µM (inactive)	> 10 µM (inactive)	> 10 µM (inactive)	> 10 µM (inactive)		> 10 µM (inactive)	> 10 µM (inactive)	> 10 µM (inactive)	> 10 µM (inactive)	> 10 µM (inactive)	> 10 µM (inactive)	> 10 µM (inactive)	> 10 µM (inactive)	> 10 µM (inactive)	> 10 µM (inactive)	> 10 µM (inactive)	> 10
CC(C)c1ccc(/C=C2\CSCC3=C2N=C2SCC(=O)N2C3c2ccc(C(C)C)cc2)cc1 (centres undefined)	> 100 µM (inactive)	> 100 µM (inactive)		> 100 µM (inactive)	> 100 µM (inactive)	> 100 µM (inactive)		> 100 µM (inactive)	> 100 µM (inactive)	64.3 µM (inactive)	40.4 µM (inactive)	> 100 µM (inactive)	> 100 µM (inactive)	> 100 µM (inactive)	> 100 µM (inactive)	> 100 µM (inactive)	> 100 µM (inactive)	> 100 µM (inactive)	> 100
CCCCOc1c(C(=O)O)cc(Br)cc1C(=O)O	> 100 µM (inactive)	> 100 µM (inactive)	> 100 µM (inactive)	> 100 µM (inactive)	> 100 µM (inactive)	> 100 µM (inactive)	> 100 µM (inactive)	> 100 µM (inactive)	> 100 µM (inactive)	> 100 µM (inactive)	> 100 µM (inactive)	> 100 µM (inactive)	> 100 µM (inactive)		> 100 µM (inactive)	> 100 µM (inactive)	> 100 µM (inactive)	> 100 µM (inactive)	> 100
CC(NC(=O)OC(C)(C)C)C(=O)NC1CCCC1 (centres undefined)	> 100 µM (inactive)		> 100 µM (inactive)	> 100 µM (inactive)	> 100 µM (inactive)	> 100 µM (inactive)		> 100 µM (inactive)	> 100 µM (inactive)		> 100 µM (inactive)	> 100 µM (inactive)	> 100 µM (inactive)	> 100 µM (inactive)	> 100 µM (inactive)		> 100 µM (inactive)	> 100 µM (inactive)	
CC(=O)OC12c3ccccc3-c3ccccc3C1C(C(=O)O)C2C(=O)O (centres undefined)	> 10 µM (inactive)	> 10 µM (inactive)	> 10 µM (inactive)	> 10 µM (inactive)	> 10 µM (inactive)	> 10 µM (inactive)		> 10 µM (inactive)		> 10 µM (inactive)	> 10 µM (inactive)	> 10 µM (inactive)	> 10 µM (inactive)	> 10 µM (inactive)	> 10 µM (inactive)	> 10 µM (inactive)	> 10 µM (inactive)	> 10 µM (inactive)	> 10
O=C1OC(c2ccc([N+](=O)[O-])cc2)=N/C1=C\c1ccc(O)cc1	> 100 µM (inactive)	> 100 µM (inactive)	> 100 µM (inactive)	> 100 µM (inactive)	> 100 µM (inactive)	> 100 µM (inactive)	> 100 µM (inactive)	> 100 µM (inactive)	> 100 µM (inactive)	> 100 µM (inactive)		> 100 µM (inactive)	> 100 µM (inactive)	> 100 µM (inactive)	> 100 µM (inactive)	> 100 µM (inactive)	> 100 µM (inactive)		> 100
COc1cccc(/C=C2\S/C(=N/Nc3nc(-c4ccc([N+](=O)[O-])cc4)cs3)NC2=O)c1O	17.3 µM (inactive)			25.3 µM (inactive)	27.5 µM (inactive)	13.2 µM (inactive)	4.23 µM (inactive)	15 µM (inactive)		1.8 µM (inactive)	12.5 µM (inactive)	17 µM (inactive)	26.9 µM (inactive)	21.9 µM (inactive)		15.3 µM (inactive)	3.25 µM (inactive)	17.9 µM (inactive)	15.6
CSC1NNC2(C(=O)N1)c1ccccc1-c1ccccc12 (centres undefined)	> 10 µM (inactive)		> 10 µM (inactive)		> 10 µM (inactive)	> 10 µM (inactive)	> 10 µM (inactive)		> 10 µM (inactive)		> 10 µM (inactive)	> 10 µM (inactive)	> 10 µM (inactive)	> 10 µM (inactive)	> 10 µM (inactive)	> 10 µM (inactive)	> 10 µM (inactive)	> 10 µM (inactive)	> 10
CN(C)c1ccc(/N=N/c2ccncc2)cc1	> 100 µM (inactive)			> 100 µM (inactive)	> 100 µM (inactive)	> 100 µM (inactive)	84.1 µM (inactive)	> 100 µM (inactive)		> 100 µM (inactive)	> 100 µM (inactive)	> 100 µM (inactive)	40 µM (inactive)	> 100 µM (inactive)	48.1 µM (inactive)	> 100 µM (inactive)	93.1 µM (inactive)	31.2 µM (inactive)	> 100
NCCCCC(NC(=O)C(N)Cc1ccc(O)cc1)C(=O)NC(Cc1ccc(O)cc1)C(=O)NC(CCCCN)C(=O)ON1C(=O)CCC1=O (centres undefined) (H-YKYK-OSu; configuration not given here)	> 100 µM (inactive)	> 100 µM (inactive)		> 100 µM (inactive)	> 100 µM (inactive)	> 100 µM (inactive)	> 100 µM (inactive)		> 100 µM (inactive)	> 100 µM (inactive)	> 100 µM (inactive)	> 100 µM (inactive)				> 100 µM (inactive)			> 100
O=c1c2cc(O)c(O)cc2oc2cc(O)c(C3OC(CO)C(O)C(O)C3O)c(O)c12 (centres undefined)	> 100 µM (inactive)	> 100 µM (inactive)	> 100 µM (inactive)	> 100 µM (inactive)	> 100 µM (inactive)	> 100 µM (inactive)	> 100 µM (inactive)	> 100 µM (inactive)	> 100 µM (inactive)	> 100 µM (inactive)	> 100 µM (inactive)	> 100 µM (inactive)	> 100 µM (inactive)		> 100 µM (inactive)	> 100 µM (inactive)	> 100 µM (inactive)	> 100 µM (inactive)	> 100

— ChEMBL document CHEMBL1201862, “PubChem BioAssay data set” (2004)
